Assay results: PubChem BioAssay (NCI)
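1) Cells in 96-well plates. 2) Compound, 48 h, 5 concentrations. 3) Linear interpolation between surrounding doses. 4) Unreached endpoint = highest concentration. GI50 marks 50% less growth. TGI is the concentration that stops growth completely.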

Assays:
Test in all cases: growth of human tumour cells (NCI), 48 h
HL-60(TB) leukemia = tested on: HL-60(TB) leukemia
UACC-257 melanoma = tested on: UACC-257 melanoma
M14 melanoma = tested on: M14 melanoma
NCI/ADR-RES ovarian = tested on: NCI/ADR-RES ovarian
UACC-62 melanoma = tested on: UACC-62 melanoma
SF-295 CNS = tested on: SF-295 CNS
HT29 colon = tested on: HT29 colon
786-0 renal = tested on: 786-0 renal
U251 CNS = tested on: U251 CNS
MCF7 breast = tested on: MCF7 breast

Structure (SMILES)	GI50 (HL-60(TB) leukemia) [µM]	TGI (HL-60(TB) leukemia) [µM]	GI50 (UACC-257 melanoma) [µM]	TGI (UACC-257 melanoma) [µM]	GI50 (M14 melanoma) [µM]	TGI (M14 melanoma) [µM]	GI50 (NCI/ADR-RES ovarian) [µM]	TGI (NCI/ADR-RES ovarian) [µM]	GI50 (UACC-62 melanoma) [µM]	TGI (UACC-62 melanoma) [µM]	GI50 (SF-295 CNS) [µM]	TGI (SF-295 CNS) [µM]	GI50 (HT29 colon) [µM]	TGI (HT29 colon) [µM]	GI50 (786-0 renal) [µM]	TGI (786-0 renal) [µM]	GI50 (U251 CNS) [µM]	TGI (U251 CNS) [µM]	GI50 (MCF7 breast) [µM]	TGI (MCF7 breast) [µM]
COc1ccc(C#CC2=C(Br)C(=O)OC2)cc1	5.32	> 50	11.9	26.4	10.5	34	12	33.6	6.48	12.8	10.5	29.1	2.42	10.5	21.5	> 50	1.75	6.48	2.47	> 50
NC1=C(/C(N)=N/O)C(c2ccccc2)c2ccc3ccccc3c2O1 (stereo not drawn)	0.275	0.788	25.1	> 100	0.208	21.1	0.0578	1.65	0.112	15.2	0.321	7.06	1.16	> 100	0.513	> 58	0.41	19.8	0.261	97.4
CC(=O)OCCC/C(=C/c1cc2ccccc2c2ccccc12)[N+](=O)[O-]	1.43	4.57	1.43	2.76	1.56	2.9	1.99	4.31	1.54	3.1	0.977	2.32	1.97	3.72	1.68	3.05	1.43	2.74	0.545	1.95
COc1cc(NC(=O)c2cc3ccccc3cc2O)c(OC)cc1Cl	1.32	15.3	2.05	5.55	2.74	> 100	1.99	6.03	1.35	5.65	1.8	4.54	2.89	19.8	2.86	9.18	1.87	5.23	1.93	7.13
CCN(CC)CCOc1ccccc1-n1c(C)ccc1-c1ccccc1	20.5	40.6	16.2	31.8	17	34.2	13.9	29.9	15.8	30.6	16.3	34.2	6.22	20.8	17.1	31.8	13.4	27.4	13	26.7
CC(NNC(=S)N1CCN(c2ccccn2)CC1)c1cccc[n+]1[O-] (stereo not drawn)		16.7		> 100		> 100		36.5		22.8		> 100		> 100		> 100		> 100		> 100
CSc1ccc(NC(=O)CCl)cc1		> 10		> 10		3.73		> 10		3.65		5.1		> 10		> 10		> 10		> 10
COC(=O)[C@]12CC[C@@H](C)[C@H](C)[C@@H]1C1=CC[C@@H]3[C@@]4(C)C(C=O)=C[C@@](C)(COC(=O)c5ccco5)C4=CC[C@@]3(C)[C@]1(C)CC2	2.85	5.72	0.108	0.65	0.104	6.93	4.84	26.1	0.0831	2.24	2.39	8.83	2.98	9.47	2.97	9.17	2.06	10.8	2.77	10.3
COc1ccc(-n2nc(C(=O)NCC(=O)Nc3nc4cc(OC)ccc4s3)c3ccccc3c2=O)cc1	> 100	> 100	1.28	5.07	2.37	> 42.9	1.35		1.76		0.346	1.62	0.441	1.78	1.96	8.19	0.448	1.73	1.35	> 32
COc1cc(-c2cn(-c3ccc(F)cc3)c(=O)[nH]2)cc(OC)c1OC	> 100	> 100	> 100	> 100	> 100	> 100	> 100	> 100	> 100	> 100	> 100	> 100	> 100	> 100	> 100	> 100	> 100	> 100	> 100	> 100
COC(=O)C(Br)(C(=O)OC)C(Br)C(Br)C(Br)c1ccccc1 (stereo not drawn)	2.09	6.03	1.88	4.4	2.47	6.2	3.28	9.99	2.28	6.56	17	33.3	1.8	3.34	2.72	6.7	3.99	10.6	1.67	5.07
CCCCc1n(Cc2ccc3ccccc3n2)cc[n+]1Cc1ccc2ccccc2c1	0.251	0.755	0.438	1.62	0.769	2.45	24.2	> 100	0.579	1.86	1.37	4.4	0.592	2.85	1.6	3.89	0.661	2.06	0.69	2.27
CCN1Cc2c(/C=C/c3ccccc3)nc3ccc(OC)cc3c2N(c2cccc(Cl)c2)C1	2.08	5.66	1.75	4.22	2.04	4	2.1	5.22	1.49	3.06	1.69	3.6	1.45	3.03	3.17	8.83	1.71	3.3	1.65	3.75
